# Counter-ions that a name gives are not always drawn.
# Molecular target: T1, epithelial sodium channel (ENaC) (Homo sapiens, UniProt P37088+P51168+P51170)
# T1 construct: host or cells: primary Human Bronchial Epithelial cells (HBECs), air-liquid interface culture
# T1 sequence (P37088 1-669): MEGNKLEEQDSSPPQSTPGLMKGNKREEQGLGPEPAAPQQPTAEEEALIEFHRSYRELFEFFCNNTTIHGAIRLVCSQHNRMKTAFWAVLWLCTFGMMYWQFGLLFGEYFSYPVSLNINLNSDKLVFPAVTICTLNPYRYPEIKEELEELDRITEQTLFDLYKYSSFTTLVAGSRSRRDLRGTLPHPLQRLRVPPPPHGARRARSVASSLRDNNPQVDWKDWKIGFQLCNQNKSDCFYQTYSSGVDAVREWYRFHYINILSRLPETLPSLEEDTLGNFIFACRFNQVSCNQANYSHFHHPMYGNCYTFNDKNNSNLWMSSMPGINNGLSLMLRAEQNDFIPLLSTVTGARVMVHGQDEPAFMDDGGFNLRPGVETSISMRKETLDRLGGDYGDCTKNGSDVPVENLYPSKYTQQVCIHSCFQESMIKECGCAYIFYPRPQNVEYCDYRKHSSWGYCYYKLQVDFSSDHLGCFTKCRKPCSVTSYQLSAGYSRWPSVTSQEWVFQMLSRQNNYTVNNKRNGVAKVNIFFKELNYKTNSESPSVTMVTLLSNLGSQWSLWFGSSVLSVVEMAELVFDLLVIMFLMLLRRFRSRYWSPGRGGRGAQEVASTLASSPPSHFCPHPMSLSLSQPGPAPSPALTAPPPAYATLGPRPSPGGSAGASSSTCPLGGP
# T1 sequence (P51168 1-640): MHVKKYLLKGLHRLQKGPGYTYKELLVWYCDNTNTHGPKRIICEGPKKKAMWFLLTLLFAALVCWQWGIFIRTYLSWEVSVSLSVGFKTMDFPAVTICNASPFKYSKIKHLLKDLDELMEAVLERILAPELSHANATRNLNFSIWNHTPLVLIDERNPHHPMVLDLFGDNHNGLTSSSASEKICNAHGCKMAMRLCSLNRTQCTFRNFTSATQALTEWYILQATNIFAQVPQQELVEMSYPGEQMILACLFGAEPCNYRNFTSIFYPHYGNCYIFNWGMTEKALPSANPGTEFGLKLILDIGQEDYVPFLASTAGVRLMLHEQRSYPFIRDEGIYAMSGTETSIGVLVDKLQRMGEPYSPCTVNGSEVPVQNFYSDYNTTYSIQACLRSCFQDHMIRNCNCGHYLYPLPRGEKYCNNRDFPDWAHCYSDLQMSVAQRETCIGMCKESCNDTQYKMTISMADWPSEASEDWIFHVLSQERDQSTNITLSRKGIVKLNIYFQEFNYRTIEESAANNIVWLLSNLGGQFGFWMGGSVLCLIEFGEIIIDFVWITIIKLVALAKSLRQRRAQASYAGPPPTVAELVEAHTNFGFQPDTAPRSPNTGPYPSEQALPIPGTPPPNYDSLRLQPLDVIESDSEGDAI
# T1 sequence (P51170 1-649): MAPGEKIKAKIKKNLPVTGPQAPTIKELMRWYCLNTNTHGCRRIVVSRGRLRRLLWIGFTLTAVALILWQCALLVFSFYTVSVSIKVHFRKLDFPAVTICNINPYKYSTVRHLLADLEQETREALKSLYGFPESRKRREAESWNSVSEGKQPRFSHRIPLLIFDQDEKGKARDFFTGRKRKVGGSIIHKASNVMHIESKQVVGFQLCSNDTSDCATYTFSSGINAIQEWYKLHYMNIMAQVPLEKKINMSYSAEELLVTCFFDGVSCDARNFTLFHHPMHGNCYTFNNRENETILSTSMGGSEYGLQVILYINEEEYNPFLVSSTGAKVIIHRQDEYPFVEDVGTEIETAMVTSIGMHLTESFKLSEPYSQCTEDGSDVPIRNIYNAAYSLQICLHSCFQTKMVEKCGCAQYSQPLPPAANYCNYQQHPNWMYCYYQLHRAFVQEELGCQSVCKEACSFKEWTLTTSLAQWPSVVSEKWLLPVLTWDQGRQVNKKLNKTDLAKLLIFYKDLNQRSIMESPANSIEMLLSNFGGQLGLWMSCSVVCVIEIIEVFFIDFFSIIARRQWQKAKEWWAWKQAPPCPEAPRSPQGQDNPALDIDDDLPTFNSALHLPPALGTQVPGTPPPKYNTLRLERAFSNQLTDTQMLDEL
# Assay: Short circuit current (ISC) measurements in Human Bronchial Epithelial cells, inhibition of amiloride-sensitive ISC
# Assay type: cell-based
# Conditions: inhibition of the amiloride-sensitive ISC; Human Bronchial Epithelial cells (HBECs) at air-liquid interface; compound added to apical chamber; read-out: IC50
# Method: Compounds of formula (I) and their pharmaceutically acceptable salts, hereinafter referred to alternatively as “agents of the invention”, are useful as pharmaceuticals. In particular, the compounds have good ENaC blocker activity and may be tested in the following assays.
# Human Bronchial Epithelial cells (HBECs) (Cambrex) were cultured under air-liquid interface conditions to provide a well differentiated mucociliary phenotype.
# HBECs were cultured using a modification of the method described by Gray and colleagues (Gray et al., 1996). Cells were seeded in plastic T-162 flasks and were grown in bronchial epithelial cell growth medium (BEGM; Cambrex) supplemented with bovine pituitary extract (52 μg/mL), hydrocortisone (0.5 μg/mL), human recombinant epidermal growth factor (0.5 ng/mL), epinephrine (0.5 μg/mL), transferrin (10 μg/mL), insulin (5 μg/mL), retinoic acid (0.1 μg/mL), triiodothyronine ([…]), gentamycin (50 μg/mL) and amphotericin B (50 ng/mL). Medium was changed every 48 hours until cells were 90% confluent. Cells were then passaged and seeded (8.25×10^5 cells/insert) on polycarbonate Snapwell inserts (Costar) in differentiation media containing 50% DMEM in BEGM with the same supplements as above but without triiodothyronine and a final retinoic acid concentration of 50 nM (all-trans retinoic acid). Cells were maintained submerged for the first 7 days in culture, after which time they were exposed to an apical air interface for the remainder of the culture period. At this time, media was changed to DMEM:F12 media containing 2% v/v Ultroser G for the remainder of culture. Amphotericin B was removed from all media 3 feeds prior to use in the Using Chambers. Cells were used between days 7 and 21 after establishment of the apical-air interface. At all stages of culture, cells were maintained at 37° C. in 5% CO2 in an air incubator.
# Short Circuit Current (ISC) Measurements
# Snapwell inserts were mounted in Vertical Diffusion Chambers (Costar) and were bathed with continuously gassed Ringer solution (5% CO2 in O2; pH 7.4) maintained at 37° C. containing (in mM): 120 NaCl, 25 NaHCO3, 3.3 KH2PO4, 0.8 K2HPO4, 1.2 CaCl2, 1.2 MgCl2, and 10 glucose. The solution osmolarity was between 280 and 300 mOsmol/kg H2O for all physiological salt solutions used. Cells were voltage clamped to 0 mV (model EVC4000; WPI). RT was measured by applying a 1- or 2-mV pulse at 30-s intervals and calculating RT by Ohm's law. Data were recorded using a PowerLab workstation (ADInstruments).
# Test compounds were prepared as a 10 mM stock solution in DMSO (95%). Serial 3-fold dilutions were freshly prepared in an appropriate vehicle (distilled H2O or Ringers solution). The initial concentration was added to the apical chamber as a 1000× concentrate in 5 μL, resulting in a final 1× concentration the 5 mL volume of the Ussing chamber. Subsequent additions of compound were added in a 3.3 μL volume of the 1000× serially diluted stock solution. At the completion of the concentration-response experiment, amiloride (10 μM) was added into the apical chamber to enable the total amiloride-sensitive current to be measured. An amiloride control IC50 was established at the start of each experiment.
# Results are expressed as the mean % inhibition of the amiloride-sensitive ISC. Concentration-response curves were plotted and IC50 values generated using GraphPad Prism 3.02. Cell inserts were typically run in duplicate and the IC50 calculated on the mean % inhibition data.
row,Compound,IC50 [nM]
1,Nc1nc(N)c(C(=O)/N=C2\NCC3(CCN(C(=O)[C@H]4CC[C@H](C(=O)N5CCC6(CC5)CN/C(=N\C(=O)c5nc(Cl)c(N)nc5N)N6)CC4)CC3)N2)nc1Cl [Example 94],9
2,"Nc1nc(N)c(C(=O)/N=C2\NCC3(CCN(C(=O)c4cccc5[nH]ccc45)CC3)N2)nc1Cl [Example 99, 3,5-Diamino-6-chloro-pyrazine-2-carboxylic acid [8-(1H-indole-4-carbonyl)-1,3,8-triaza-spiro[4.5]dec-(2E)-ylidene]-amide]",19
3,"Nc1nc(N)c(C(=O)/N=C2\NCC3(CCN(C(=O)CCc4nc(-c5ccc(Cl)cc5)no4)CC3)N2)nc1Cl [Example 146, 3,5-Diamino-6-chloro-pyrazine-2-carboxylic acid [8-{3-[3-(4-chlorophenyl)-[1,2,4]oxadiazol-5-yl]-propionyl}-1,3,8-triaza-spiro[4.5]dec-(2E)-ylidene-amide trifluoroacetate]",6
4,"CC(C)(C)OC(=O)c1ccc(C(=O)N2CCC3(CC2)CN/C(=N\C(=O)c2nc(Cl)c(N)nc2N)N3)cc1 [Example 76, 4-{2-[(E)-3,5-Diamino-6-chloro-pyrazine-2-carbonylimino]-1,3,8-triaza-spiro[4.5]decane-8-carbonyl}-benzoic acid tert-butyl ester]",12
5,"CC(C)NC(=O)Nc1ccc(C(=O)N2CCC3(CC2)CN/C(=N\C(=O)c2nc(Cl)c(N)nc2N)N3)cn1 [Example 65, 3,5-Diamino-6-chloro-pyrazine-2-carboxylic acid [8-[6-(3-isopropyl-ureido)-pyridine-3-carbonyl]-1,3,8-triaza-spiro[4.5]dec-(2E)-ylidene]-amide]",39.5
6,"Nc1nc(N)c(C(=O)/N=C2\NCC3(CCN(C(=O)CCc4ccc(OCc5ccncc5)cc4)CC3)N2)nc1Cl [Example 70, 3,5-Diamino-6-chloro-pyrazine-2-carboxylic acid [8-{3-[4-(pyridin-4-ylmethoxy)-phenyl]-propionyl}-1,3,8-triaza-spiro[4.5]dec-(2E)-ylidene]-amide]",74
7,"Nc1nc(N)c(C(=O)N=C2NC3CCCCC3N2)nc1Cl (stereo not drawn) [Example 11, 3,5-Diamino-6-chloro-pyrazine-2-carboxylic acid (octahydro-benzoimidazol-2-ylidene)-amide]",1690
8,"COc1cc(OC)nc(COc2ccc(C(=O)N3CCC4(CC3)CN/C(=N\C(=O)c3nc(Cl)c(N)nc3N)N4)cc2)n1 [Example 61, 3,5-Diamino-6-chloro-pyrazine-2-carboxylic acid [8-[4-(4,6-dimethoxy-pyrimidin-2-ylmethoxy)-benzoyl]-1,3,8-triaza-spiro[4.5]dec-(2E)-ylidene]-amide]",346
9,"Cc1[nH]c2ccc(CC(=O)N3CCC4(CC3)CN/C(=N\C(=O)c3nc(Cl)c(N)nc3N)N4)cc2c1C [Example 48, 3,5-Diamino-6-chloro-pyrazine-2-carboxylic acid [8-[2-(2,3-dimethyl-1H-indol-5-yl)-acetyl]-1,3,8-triaza-spiro[4.5]dec-(2E)-ylidene]-amide]",16.5

# Continued, values first:
row,IC50 [nM],Compound
1,5.5,"Cc1ccc(S(=O)(=O)N[C@@H](Cc2ccccc2)C(=O)N2CCC3(CC2)CN/C(=N\C(=O)c2nc(Cl)c(N)nc2N)N3)cc1 [Example 39, 3,5-Diamino-6-chloro-pyrazine-2-carboxylic acid [8-[(S)-3-phenyl-2-(toluene-4-sulfonylamino)-propionyl]-1,3,8-triaza-spiro[4.5]dec-(2E)-ylidene]-amide]"
2,18,"Nc1nc(N)c(C(=O)/N=C2\NC[C@H](CCCNC(=O)NCc3ccccc3)N2)nc1Cl [Example 32, 3,5-Diamino-6-chloro-pyrazine-2-carboxylic acid [(S)-4-[3-(3-benzyl-ureido)-propyl]-imidazolidin-(2E)-ylidene]-amide]"
3,31,"Nc1nc(N)c(C(=O)/N=C2\NC[C@H](CCCCNS(=O)(=O)Cc3ccccc3)N2)nc1Cl [Example 35, 3,5-Diamino-6-chloro-pyrazine-2-carboxylic acid [(S)-4-(4-phenylmethanesulfonylamino-butyl)-imidazolidin-(2E)-ylidene]-amide]"
4,11,CC(C)(CCOCc1ccccc1)C[C@H]1CN/C(=N/C(=O)c2nc(Cl)c(N)nc2N)N1 [Example 26]
5,11,"Nc1nc(N)c(C(=O)/N=C2\NCC3(CCN(C(=O)Cc4nnc(-c5ccccc5)[nH]4)CC3)N2)nc1Cl [Example 42, 3,5-Diamino-6-chloro-pyrazine-2-carboxylic acid [8-[2-(5-phenyl-4H-[1,2,4]triazol-3-yl)-acetyl]-1,3,8-triaza-spiro[4.5]dec-(2E)-ylidene]-amide]"
6,95,"Nc1nc(N)c(C(=O)/N=C2\NC[C@H](CCCNC(=O)Cc3ccccc3)N2)nc1Cl [Example 34, 3,5-Diamino-6-chloro-pyrazine-2-carboxylic acid [(S)-4-(3-phenylacetylamino-propyl)-imidazolidin-(2E)-ylidene]-amide]"
